Reference: publication PMC5843753, “Comparative analysis of plant isochorismate synthases reveals structural mechanisms underlying their distinct biochemical properties” (Bioscience Reports, 2018)

Experiments:
OsICS = target: T1, OsICS (Oryza sativa, UniProt A0A286T796); experiment: in planta SA accumulation with co-expressed IPL; assay type: cell-based; conditions: endogenous chorismate, N. benthamiana leaves, transit peptide replaced
T1 construct: own transit peptide replaced by that of AtICS1 or of tobacco Rubisco small subunit; N. benthamiana leaves, P. fluorescens IPL PmsB as coupling enzyme
T1 sequence (A0A286T796 46-581): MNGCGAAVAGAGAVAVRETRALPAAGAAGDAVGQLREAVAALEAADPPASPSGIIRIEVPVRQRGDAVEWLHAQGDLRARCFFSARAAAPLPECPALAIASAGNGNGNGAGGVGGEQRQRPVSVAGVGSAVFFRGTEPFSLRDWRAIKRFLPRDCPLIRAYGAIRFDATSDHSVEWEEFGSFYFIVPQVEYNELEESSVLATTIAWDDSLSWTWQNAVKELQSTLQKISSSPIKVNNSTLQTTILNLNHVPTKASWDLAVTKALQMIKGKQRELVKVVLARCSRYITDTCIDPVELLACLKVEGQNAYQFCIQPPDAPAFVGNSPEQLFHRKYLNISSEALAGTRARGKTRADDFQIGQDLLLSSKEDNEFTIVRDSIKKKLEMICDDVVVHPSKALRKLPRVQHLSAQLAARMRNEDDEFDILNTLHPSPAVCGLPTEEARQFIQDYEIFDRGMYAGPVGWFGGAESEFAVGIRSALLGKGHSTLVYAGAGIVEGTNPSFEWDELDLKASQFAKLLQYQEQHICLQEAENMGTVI

EntC = target: T2, EntC (Escherichia coli, UniProt P0AEJ2); experiment: isochorismate converted into SA, SA measured; assay type: biochemical; conditions: 1 mM barium chorismate, 10 mM MgCl2, pH 7.5, 30 C, 1 h; crude E. coli fraction; linearity not confirmed for EntC in E. coli
T2 construct: N-terminal His6 (pET28a), E. coli SHuffle T7, crude desalted protein fraction; also with tobacco Rubisco small subunit transit peptide and 3xFLAG in N. benthamiana
T2 sequence (P0AEJ2 1-391): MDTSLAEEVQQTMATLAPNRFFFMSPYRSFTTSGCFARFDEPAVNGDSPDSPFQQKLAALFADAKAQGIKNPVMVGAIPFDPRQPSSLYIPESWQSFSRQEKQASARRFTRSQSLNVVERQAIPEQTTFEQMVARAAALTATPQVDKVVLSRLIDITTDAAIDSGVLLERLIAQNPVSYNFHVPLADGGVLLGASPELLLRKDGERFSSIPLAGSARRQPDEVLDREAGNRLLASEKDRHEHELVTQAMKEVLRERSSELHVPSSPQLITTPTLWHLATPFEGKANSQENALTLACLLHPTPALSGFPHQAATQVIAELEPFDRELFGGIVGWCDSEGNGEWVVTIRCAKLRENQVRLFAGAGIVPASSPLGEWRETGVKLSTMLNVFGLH

AtICS1 [1] = target: T3, AtICS1 (Arabidopsis thaliana, UniProt Q9S7H8); experiment: isochorismate converted into SA, SA measured; assay type: biochemical; conditions: 1 mM barium chorismate, 10 mM MgCl2, pH 7.5, 30 C, 1 h; crude E. coli fraction
T3 construct: gene ICS1; putative chloroplast transit peptide removed, N-terminal His6 (pET28a), E. coli SHuffle T7, crude desalted protein fraction; also C-terminal 3xFLAG in N. benthamiana leaves
T3 sequence (Q9S7H8 46-569): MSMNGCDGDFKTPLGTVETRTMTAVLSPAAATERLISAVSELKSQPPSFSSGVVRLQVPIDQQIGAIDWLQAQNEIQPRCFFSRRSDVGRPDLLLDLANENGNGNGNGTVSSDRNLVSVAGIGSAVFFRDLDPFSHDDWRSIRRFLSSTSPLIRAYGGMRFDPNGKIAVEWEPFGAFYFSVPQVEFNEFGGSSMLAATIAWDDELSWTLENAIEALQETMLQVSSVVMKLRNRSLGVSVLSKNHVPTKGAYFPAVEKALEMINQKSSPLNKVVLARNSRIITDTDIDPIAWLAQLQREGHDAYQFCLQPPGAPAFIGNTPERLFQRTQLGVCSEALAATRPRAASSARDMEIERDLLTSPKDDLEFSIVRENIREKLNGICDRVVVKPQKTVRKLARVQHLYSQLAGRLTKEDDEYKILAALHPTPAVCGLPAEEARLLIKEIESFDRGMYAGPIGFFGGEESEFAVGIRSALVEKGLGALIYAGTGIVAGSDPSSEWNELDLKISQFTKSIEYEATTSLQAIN

NtICS = target: T4, NtICS (Nicotiana tabacum, UniProt A0A286T848); experiment: in planta SA accumulation with co-expressed IPL; assay type: cell-based; conditions: endogenous chorismate, N. benthamiana leaves, ICS to IPL 1:19
T4 sequence (A0A286T848 48-584): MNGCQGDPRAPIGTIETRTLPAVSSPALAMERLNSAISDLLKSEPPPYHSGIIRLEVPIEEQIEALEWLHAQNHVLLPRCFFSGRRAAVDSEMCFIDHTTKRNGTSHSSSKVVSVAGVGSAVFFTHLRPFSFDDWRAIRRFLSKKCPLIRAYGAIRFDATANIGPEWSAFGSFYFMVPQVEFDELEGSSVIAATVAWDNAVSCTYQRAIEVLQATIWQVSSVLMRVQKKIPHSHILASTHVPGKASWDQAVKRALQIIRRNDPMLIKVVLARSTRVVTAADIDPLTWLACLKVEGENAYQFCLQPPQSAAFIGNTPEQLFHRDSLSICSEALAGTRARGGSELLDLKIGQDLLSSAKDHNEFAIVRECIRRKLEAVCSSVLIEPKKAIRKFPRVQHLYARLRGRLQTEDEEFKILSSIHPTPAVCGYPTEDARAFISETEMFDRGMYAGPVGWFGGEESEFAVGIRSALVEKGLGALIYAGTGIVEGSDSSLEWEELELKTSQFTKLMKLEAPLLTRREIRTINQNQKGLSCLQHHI

NbICS = NbICS (Nicotiana benthamiana, UniProt A0A286T8R2); experiment: in planta SA accumulation with co-expressed IPL; assay type: cell-based; conditions: endogenous chorismate, N. benthamiana leaves, ICS to IPL 1:19
Chain of NbICS (A0A286T8R2 53-590): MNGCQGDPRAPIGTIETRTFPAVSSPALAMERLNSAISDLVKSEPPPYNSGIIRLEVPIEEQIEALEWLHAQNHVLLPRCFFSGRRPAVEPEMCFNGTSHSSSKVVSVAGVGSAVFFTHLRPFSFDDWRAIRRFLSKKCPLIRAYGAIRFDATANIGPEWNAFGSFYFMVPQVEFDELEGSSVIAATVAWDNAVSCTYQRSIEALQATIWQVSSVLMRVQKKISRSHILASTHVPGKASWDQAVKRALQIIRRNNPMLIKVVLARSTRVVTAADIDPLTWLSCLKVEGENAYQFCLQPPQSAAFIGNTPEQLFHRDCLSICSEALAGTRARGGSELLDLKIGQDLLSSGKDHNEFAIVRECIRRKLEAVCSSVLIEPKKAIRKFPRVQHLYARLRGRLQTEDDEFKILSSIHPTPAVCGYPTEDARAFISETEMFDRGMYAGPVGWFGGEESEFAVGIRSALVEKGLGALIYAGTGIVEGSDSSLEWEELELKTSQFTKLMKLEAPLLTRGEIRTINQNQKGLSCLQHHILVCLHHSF

AtICS1 [2] = target: T5, AtICS1 (Arabidopsis thaliana, UniProt Q9S7H8, T531A); experiment: isochorismate converted into SA, SA measured; assay type: biochemical; conditions: 1 mM barium chorismate, 10 mM MgCl2, pH 7.5, 30 C, 1 h; crude E. coli fraction
T5 construct: gene ICS1; putative chloroplast transit peptide removed, N-terminal His6 (pET28a), E. coli SHuffle T7, crude desalted protein fraction; also C-terminal 3xFLAG in N. benthamiana leaves
T5 sequence (Q9S7H8 46-569 T531A): as the sequence (Q9S7H8 46-569) above, with T486A counted along it

SMILES: C=C(O[C@@H]1C=C(C(=O)O)C=C[C@H]1O)C(=O)O [chorismate]
- SA level (OsICS): OsICS with TP^AtICS1 or TP^SS showed low but significant levels of ICS activity in planta
- ICS activity (EntC): AtICS1 and EntC showed activity that was much higher than the empty vector control
- ICS activity (AtICS1 [1]): AtICS1 and EntC showed activity that was much higher than the empty vector control
- SA level (NtICS): expression of NtICS or NbICS with IPL resulted in significant increases in the levels of SA
- SA level (NbICS): expression of NtICS or NbICS with IPL resulted in significant increases in the levels of SA
- ICS activity (AtICS1 [2]): The T531A mutant showed the lowest activity compared with the S537T and I550A mutants
